In US10196369B2, “Spirocyclic EBI2 modulators” (Sanford Burnham Prebys Medical Discovery Institute, priority 2013, dated 2019):

Target: EBI2 (Homo sapiens, UniProt P32249)
Test: Cell-based luminescent assay of EBI2 modulation (7a,25-OHC stimulated)
Settings: 7a,25-OHC final assay concentration 80 nM, 60 minute incubation
Procedure, shortened: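 Cells expressing EBI2 were plated overnight, then treated 60 min at 37 °C with compound (final 4-5 uM) plus 7a,25-OHC (80 nM final). Detection reagent was added for 60 min at 25 °C in the dark, with luminescence read-out. Values were normalized between neutral and stimulator controls and corrected for plate patterns.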

Chain of EBI2 (P32249 whole entry): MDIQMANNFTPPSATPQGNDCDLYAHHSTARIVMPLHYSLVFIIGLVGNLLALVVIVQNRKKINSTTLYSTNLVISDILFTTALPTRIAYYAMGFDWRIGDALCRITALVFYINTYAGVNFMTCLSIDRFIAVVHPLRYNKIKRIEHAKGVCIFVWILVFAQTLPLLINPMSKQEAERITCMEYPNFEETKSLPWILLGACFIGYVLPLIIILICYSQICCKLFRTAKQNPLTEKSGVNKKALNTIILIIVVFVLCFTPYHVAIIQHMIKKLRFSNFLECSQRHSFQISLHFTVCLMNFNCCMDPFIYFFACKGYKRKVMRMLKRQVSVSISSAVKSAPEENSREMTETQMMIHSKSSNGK

Row | Compound | IC50
1 | O=C(/C=C/c1ccc(Br)cc1)N1CC2(CCN(C(=O)c3ccc(F)cc3C(F)(F)F)CC2)C1 [Compound C45, (2E)-3-(4-bromophenyl)-1-(7-{[4-fluoro-2-(trifluoromethyl)phenyl]carbonyl}-2,7-diazaspiro[3.5]non-2-yl)prop-2-en-1-one] | < 0.1 µM
2 | O=C(/C=C/c1ccc(Cl)c(Cl)c1)N1CC2(CCN(Cc3ccc(F)cc3)CC2)C1 [Compound C32, (2E)-3-(3,4-dichlorophenyl)-1-{7-[(4-fluorophenyl)methyl]-2,7-diazaspiro[3.5]non-2-yl}prop-2-en-1-one] | 0.1 to 0.5 µM
3 | O=C(/C=C/c1ccc(Br)cc1)N1CC2(CCN(C(=O)c3cccc(Br)c3)CC2)C1 [Compound C2, (2E)-3-(4-bromophenyl)-1-{7-[(3-bromophenyl)carbonyl]-2,7-diazaspiro[3.5]non-2-yl}prop-2-en-1-one] | < 0.1 µM
4 | O=C(/C=C/c1ccc(Br)cc1)N1CCC2(CC1)CN(C(=O)c1cc(Cl)cc(Cl)c1)C2 [Compound C10, (2E)-1-{2-[(3,5-dichlorophenyl)carbonyl]-2,7-diazaspiro[3.5]non-7-yl}-3-(4-bromophenyl)prop-2-en-1-one] | < 0.1 µM
5 | O=C(/C=C/c1ccc(Br)cc1)N1CC2(CCN(C(=O)c3cc(F)cc(F)c3)CC2)C1 [Compound C44, (2E)-1-{7-[(3,5-difluorophenyl)carbonyl]-2,7-diazaspiro[3.5]non-2-yl}-3-(4-bromophenyl)prop-2-en-1-one] | < 0.1 µM
6 | Cc1cccc(C(=O)N2CC3(CCN(C(=O)/C=C/c4ccc(Br)cc4)CC3)C2)c1 [Compound C12, (2E)-3-(4-bromophenyl)-1-{2-[(3-methylphenyl)carbonyl]-2,7-diazaspiro[3.5]non-7-yl}prop-2-en-1-one] | < 0.1 µM
7 | O=C(c1ccc(F)cc1)N1CC2(CCN(C(=O)c3cc4cc(Cl)ccc4[nH]3)CC2)C1 [Compound C5, 5-chloroindol-2-yl 2-[(4-fluorophenyl)carbonyl]-2,7-diazaspiro[3.5]non-7-yl ketone] | < 0.1 µM
8 | COc1ccc(C(=O)N2CC3(CCN(C(=O)/C=C/c4ccc(Br)cc4)CC3)C2)cc1OC [Compound C9, (2E)-1-{2-[(3,4-dimethoxyphenyl)carbonyl]-2,7-diazaspiro[3.5]non-7-yl}-3-(4-bromophenyl)prop-2-en-1-one] | < 0.1 µM

Second part, the compound after the results:

Row | IC50 | Compound
9 | 0.1 to 0.5 µM | O=C(C#Cc1ccc(Br)cc1)N1CC2(CCN(C(=O)c3ccc(C(F)(F)F)cc3)CC2)C1 [Compound C65, 3-(4-bromophenyl)-1-(7-{[4-(trifluoromethyl)phenyl]carbonyl}-2,7-diazaspiro[3.5]non-2-yl)prop-2-yn-1-one]
10 | < 0.1 µM | O=C(C#Cc1ccc(Br)cc1)N1CCC2(CC1)CN(Cc1ccc(Br)cc1)C2 [Compound C72, 3-(4-bromophenyl)-1-{2-[(4-bromophenyl)methyl]-2,7-diazaspiro[3.5]non-7-yl}prop-2-yn-1-one]
11 | 0.1 to 0.5 µM | O=C(C#Cc1ccc(Br)cc1)N1CC2(CCN(C(=O)c3ccc(Cl)cc3)CC2)C1 [Compound C64, 3-(4-bromophenyl)-1-{7-[(4-chlorophenyl)carbonyl]-2,7-diazaspiro[3.5]non-2-yl}prop-2-yn-1-one]
12 | 0.1 to 0.5 µM | O=C(c1ccc(F)cc1)N1CCC2(CC1)CN(C(=O)c1cc3cc(Br)ccc3[nH]1)C2 [Compound C47, 5-bromoindol-2-yl 7-[(4-fluorophenyl)carbonyl]-2,7-diazaspiro[3.5]non-2-yl ketone]
13 | 0.1 to 0.5 µM | O=C(C#Cc1ccc(F)cc1)N1CCC2(CC1)CN(C(=O)c1ccc(Br)cc1)C2 [Compound C99, 1-{2-[(4-bromophenyl)carbonyl]-2,7-diazaspiro[3.5]non-7-yl}-3-(4-fluorophenyl)prop-2-yn-1-one]
14 | < 0.1 µM | O=C(/C=C/c1ccc(Br)cc1)N1CCC2(CC1)CN(C(=O)c1ccc(C(F)(F)F)cc1)C2 [Compound C54, (2E)-3-(4-bromophenyl)-1-(2-{[4-(trifluoromethyl)phenyl]carbonyl}-2,7-diazaspiro[3.5]non-7-yl)prop-2-en-1-one]
15 | < 0.1 µM | COc1ccc(C(=O)N2CCC3(CC2)CN(C(=O)C#Cc2ccc(Cl)cc2)C3)cc1 [Compound C91, 3-(4-chlorophenyl)-1-{7-[(4-methoxyphenyl)carbonyl]-2,7-diazaspiro[3.5]non-2-yl}prop-2-yn-1-one]
16 | < 0.1 µM | O=C(C#Cc1ccc(F)cc1)N1CC2(CCN(C(=O)c3ccc(Br)cc3)CC2)C1 [Compound C95, 1-{7-[(4-bromophenyl)carbonyl]-2,7-diazaspiro[3.5]non-2-yl}-3-(4-fluorophenyl)prop-2-yn-1-one]
17 | 0.5 to 5 µM | O=C(C#Cc1ccc2c(c1)OCO2)N1CCC2(CC1)CN(C(=O)c1ccc(Br)cc1)C2 [Compound I1, 3-(2H-benzo[3,4-d]1,3-dioxolen-5-yl)-1-{2-[(4-bromophenyl)carbonyl]-2,7-diazaspiro[3.5]non-7-yl}prop-2-yn-1-one]
